Source: the C3SDB collision cross section collection
Where “and” joins values, the source holds several entries; their conditions need not be identical. Equal entries are not always repeated.

Key:
[1] = instrument: DT, stepped-field
[2] = instrument: TW, calibrated with phosphatidylcholines (ESI+) and phosphatidylethanolamines (ESI-)
[3] = instrument: DT, single field, calibrated with Agilent tune mix (Agilent)
[4] = [M+H]+; instrument: DT; stepped-field
[5] = instrument: DT, single field, calibrated with Agilent tune mix (Agilent); remark: listed apart in the source
[6] = instrument: DT, stepped-field; remark: listed apart in the source
[7] = instrument: DT, single field
[8] = instrument: TW, calibrated with phosphatidylcholines (ESI+) and phosphatidylethanolamines (ESI-); remark: listed apart in the source

CN1c2c(nc(N)[nH]c2=O)NCC1CNc1ccc(C(=O)N[C@H](CCC(=O)O)C(=O)O)cc1 (stereo partly drawn) [5-Methyl-THF]
collision cross section (N2) ([1]; [M+H]+): 197.52 Å² | collision cross section (N2) ([1]; [M-H]-): 200.57 Å²

CC[C@H](C)[C@H](NC(=O)[C@H](Cc1ccc(O)cc1)NC(=O)[C@@H](NC(=O)[C@H](CCCN=C(N)N)NC(=O)[C@@H](N)CC(=O)O)C(C)C)C(=O)N[C@@H](Cc1cnc[nH]1)C(=O)N1CCC[C@H]1C(=O)N[C@@H](Cc1ccccc1)C(=O)N[C@@H](Cc1cnc[nH]1)C(=O)N[C@@H](CC(C)C)C(=O)O [Angiotensin I]
collision cross section (N2) ([1]; [M+2H]2+): 387.3 Å² | collision cross section (N2) ([1]; [M+3H]3+): 474.71 Å² | collision cross section (N2) ([1]; [M+4H]4+): 549.24 Å² | collision cross section (N2) ([1]; [M+H]+): 357.31 Å²

CCCCC/C=C\C/C=C\C/C=C\C/C=C\CCCC(=O)O [Arachidonic acid]
collision cross section (N2) ([1]; [M-H]-): 183.66 Å²

NC(N)=NCCC[C@H](NC(=O)[C@H](Cc1ccccc1)NC(=O)[C@@H]1CCCN1C(=O)[C@H](CO)NC(=O)[C@H](Cc1ccccc1)NC(=O)CNC(=O)[C@@H]1CCCN1C(=O)[C@@H]1CCCN1C(=O)[C@@H](N)CCCN=C(N)N)C(=O)O [Bradykinin]
collision cross section (N2) ([1]; [M+2H]2+): 343.33 Å² | collision cross section (N2) ([1]; [M+3H]3+): 447.61 Å² | collision cross section (N2) ([1]; [M+H]+): 315.25 Å²

CCCCCCCCCCCCCCC(=O)OC[C@H](CO[C@@H]1O[C@H](CO[C@H]2O[C@H](CO)[C@H](O)C(O)C2O)[C@H](O)C(O)C1O)OC(=O)CCCCCCCCCCCCCC (stereo partly drawn) [DGDG(30:0)]
collision cross section (N2) ([2]; [M+NH4]+): 302.4 Å² | collision cross section (N2) ([2]; [M+Na]+): 299.6 Å²

CCCCCCCCCCCCC=CCC(=O)OC[C@H](CO[C@@H]1O[C@H](CO[C@H]2O[C@H](CO)[C@H](O)C(O)C2O)[C@H](O)C(O)C1O)OC(=O)CC=CCCCCCCCCCCCC (stereo partly drawn) [DGDG(32:2)]
collision cross section (N2) ([2]; [M+NH4]+): 302.2 Å² | collision cross section (N2) ([2]; [M+Na]+): 298 Å²

CCCCCCCCCCCCCCCCC(=O)OC[C@H](CO[C@@H]1O[C@H](CO[C@H]2O[C@H](CO)[C@H](O)C(O)C2O)[C@H](O)C(O)C1O)OC(=O)CCCCCCCCCCCCCCCC (stereo partly drawn) [DGDG(34:0)]
collision cross section (N2) ([2]; [M+NH4]+): 314.2 Å² | collision cross section (N2) ([2]; [M+Na]+): 311.8 Å²

CCCCCCCCCCCCCCC=CCC(=O)OC[C@H](CO[C@@H]1O[C@H](CO[C@H]2O[C@H](CO)[C@H](O)C(O)C2O)[C@H](O)C(O)C1O)OC(=O)CC=CCCCCCCCCCCCCCC (stereo partly drawn) [DGDG(36:2)]
collision cross section (N2) ([2]; [M+K]+): 315.3 Å² | collision cross section (N2) ([2]; [M+NH4]+): 315.2 Å² | collision cross section (N2) ([2]; [M+Na]+): 312.4 Å²

CCCCCCCCCCCCCCCCCCCC(=O)O [Eicosanoic acid]
collision cross section (N2) ([1]; [M-H]-): 186.17 Å²

N[C@@H](CSSC[C@H](N)C(=O)O)C(=O)O [L-Cystine]
collision cross section (N2) ([1]; [M+H]+): 150.08 Å² | collision cross section (N2) ([1]; [M+Na]+): 151.81 Å² | collision cross section (N2) ([1]; [M-H]-): 144.39 Å² | collision cross section (N2) ([3]; [M+H]+): 149.4 Å²

N[C@@H](CCC(=O)O)C(=O)O [L-Glutamate]
collision cross section (N2) ([1]; [M-H]-): 125.65 Å²

N[C@@H](Cc1cnc[nH]1)C(=O)O [L-Histidine]
collision cross section (N2) ([1]; [M+H]+): 132.74 Å² | collision cross section (N2) ([1]; [M+Na]+): 135.48 Å² | collision cross section (N2) ([1]; [M-H]-): 130.01 Å² | collision cross section (N2) [4]: 132.41 Å² | collision cross section (N2) ([3]; [M+H]+): 131.9 Å²

CC(C)C[C@H](N)C(=O)O [L-Leucine]
collision cross section (N2) ([1]; [M+H]+): 135.56 Å² | collision cross section (N2) ([1]; [M-H]-): 132.51 Å² | collision cross section (N2) [4]: 135.16 Å²

O=C(O)[C@@H]1CCCN1 [L-Proline]
collision cross section (N2) ([1]; [M+H]+): 126.22 Å² | collision cross section (N2) [4]: 126.48 Å² | collision cross section (N2) ([3]; [M+H]+): 125.1 Å²

CCCCCCCCCCCCCCCCCCCCCCCC(=O)O [Lignoceric acid]
collision cross section (N2) ([1]; [M-H]-): 201.11 Å²

CCCCC/C=C\C/C=C\CCCCCCCC(=O)O [Linoleic acid]
collision cross section (N2) ([1]; [M-H]-): 175.69 Å² | collision cross section (N2) ([3]; [M-H]-): 173.24 Å²

CC/C=C\C/C=C\C/C=C\CCCCCCCC(=O)O [Linolenic acid]
collision cross section (N2) ([1]; [M-H]-): 174.88 Å²

CCCCCCCCCCCCCCCCCC(=O)OC(COC(=O)CCCCCCCCCCCCCC)COP(=O)([O-])OCC(O)COC(=O)C(N)CCCC[NH3+] (stereo not drawn) [LysPG(33:0)]
collision cross section (N2) ([2]; [M+H]+): 299.8 Å²

CCCCCC/C=C/CCCCCCCCCC(=O)OCC(COP(=O)([O-])OCC(O)COC(=O)C(N)CCCC[NH3+])OC(=O)CCCCCCCCCCCCCCC (stereo not drawn) [LysPG(34:1)]
collision cross section (N2) ([2]; [M+H]+): 299.6 Å²

CCCCCC/C=C\CCCCCCCCCC(=O)OCC(COP(=O)([O-])OCC(O)COC(=O)C(N)CCCC[NH3+])OC(=O)CCCCCCCC/C=C\CCCCCC (stereo not drawn) [LysPG(35:2)]
collision cross section (N2) ([2]; [M+H]+): 300.8 Å²

CCCCCCCCCCCCCCCCCCCCC(=O)OC(COC(=O)CCCCCCCCCCCCCC)COP(=O)([O-])OCC(O)COC(=O)C(N)CCCC[NH3+] (stereo not drawn) [LysPG(36:0)]
collision cross section (N2) ([2]; [M+H]+): 308.7 Å²

CCCCCC/C=C\CCCCCCCCCC(=O)OCC(COP(=O)([O-])OCC(O)COC(=O)C(N)CCCC[NH3+])OC(=O)CCCCCCCCC/C=C\CCCCCC (stereo not drawn) [LysPG(36:2)]
collision cross section (N2) ([2]; [M+H]+): 302.8 Å²

CC/C=C\C/C=C\C/C=C\CCCCCCCC(=O)OC[C@H](CO[C@@H]1O[C@H](CO)[C@H](O)C(O)C1O)OC(=O)CCCCC/C=C\C/C=C\C/C=C\CC (stereo partly drawn) [MGDG(16:3/18:3)]
collision cross section (N2) ([2]; [M+CH3COO]-): 280.3 Å² | collision cross section (N2) ([2]; [M+Cl]-): 273.7 Å² | collision cross section (N2) ([2]; [M+K]+): 273.6 Å² | collision cross section (N2) ([2]; [M+Na]+): 273.1 Å² | collision cross section (N2) ([2]; [M-H]-): 269.9 Å²

CCCCCCCCCCCCCCCCCC(=O)O[C@H](COC(=O)CCCCCCCCCCCC)COP(=O)(O)O [PA(31:0)]
collision cross section (N2) ([2]; [M-H]-): 248.2 Å²

CCCCCC/C=C\CCCCCCCCCC(=O)O[C@H](COC(=O)CCCCCCC/C=C\CCCCCCCC)COP(=O)([O-])OCC[N+](C)(C)C [PC(36:2)]
collision cross section (N2) ([5]; [M+HCOO]-): 291 Å² | collision cross section (N2) ([5]; [M+H]+): 291.3 Å² | collision cross section (N2) ([5]; [M+Na]+): 295.1 Å² | collision cross section (N2) ([6]; [M+H]+): 303.1 Å² | collision cross section (N2) ([7]; [M+H]+): 288.83 Å² and 290.58 Å² | collision cross section (N2) ([7]; [M+Na]+): 293.18 Å² | collision cross section (N2) ([8]; [M+CH3COO]-): 293.3 Å² | collision cross section (N2) ([8]; [M+H]+): 288.5 Å²

CCCC/C=C\CCCCCCCC(=O)O[C@H](COC(=O)CCCCCCCCCCCCC)COP(=O)(O)OC[C@@H](O)CO [PG(28:1)]
collision cross section (N2) ([2]; [M-H]-): 251.2 Å²

CCCCCCCCCCCCCCCCCCCCC(=O)OC[C@H](COP(=O)(O)OC[C@@H](O)CO)OC(=O)CCCCCCCCCCCCCC [PG(36:0)]
collision cross section (N2) ([2]; [M-H]-): 277.9 Å²

CCCC/C=C\CCCCCCCC(=O)O[C@H](CO/C=C\CCCCCCCCCCCCC)COP(=O)(O)OC[C@@H](O)CO [PG(p29:1)]
collision cross section (N2) ([2]; [M-H]-): 252.2 Å²

CCCCC/C=C\C/C=C\CCCCCCCCCCCC(=O)O[C@H](COC(=O)CCCCCCCCCCCCC)COP(=O)(O)OC[C@H](N)C(=O)O [PS(36:2)]
collision cross section (N2) ([5]; [M+H]+): 283 Å² | collision cross section (N2) ([5]; [M+Na]+): 284.2 Å² | collision cross section (N2) ([5]; [M-H]-): 277.5 Å² | collision cross section (N2) ([6]; [M-H]-): 285 Å² and 286.5 Å² | collision cross section (N2) ([8]; [M-H]-): 277.4 Å²

CCCCC/C=C\C/C=C\C/C=C\CCCCCCC(=O)O[C@H](COC(=O)CCCCCCC/C=C\CCCCCCCC)COP(=O)(O)OC[C@H](N)C(=O)O [PS(38:4)]
collision cross section (N2) ([5]; [M+Na]+): 290.6 Å² | collision cross section (N2) ([6]; [M-H]-): 291.4 Å² | collision cross section (N2) ([8]; [M-H]-): 280.9 Å²

CCCCCC/C=C\CCCCCCCC(=O)O [Palmitoleic acid]
collision cross section (N2) ([1]; [M-H]-): 167.95 Å²

Cc1ncc(COP(=O)(O)O)c(C=O)c1O [Pyridoxal Phosphate]
collision cross section (N2) ([1]; [M+H]+): 151.94 Å² | collision cross section (N2) ([1]; [M+Na]+): 161.4 Å² | collision cross section (N2) ([1]; [M-H]-): 150.8 Å²

CSCC[C@H](NC(=O)[C@H](CC(C)C)NC(=O)CNC(=O)[C@H](Cc1ccccc1)NC(=O)[C@H](Cc1ccccc1)NC(=O)[C@H](CCC(N)=O)NC(=O)[C@H](CCC(N)=O)NC(=O)[C@@H]1CCCN1C(=O)[C@H](CCCCN)NC(=O)[C@@H]1CCCN1C(=O)[C@@H](N)CCCN=C(N)N)C(N)=O [Substance P]
collision cross section (N2) ([1]; [M+2H]2+): 399.88 Å² | collision cross section (N2) ([1]; [M+3H]3+): 495.74 Å² | collision cross section (N2) ([1]; [M+H]+): 362.51 Å²

O=c1[nH]c(=O)c2[nH]c(=O)[nH]c2[nH]1 [Uric acid]
collision cross section (N2) ([1]; [M-H]-): 126.93 Å²
